# Laboratory results reported in PubChem BioAssay AID2060327 (Molecular Pharmacology Branch, DTP, NCI, 2025).
# Tested on: PC-3 multi-cell spheroids, viability
# Assay: Anticancer human tumor PC-3 cell line growth inhibition [IpAb];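 note: spheroids exposed to compounds for 7 days before readout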;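 for viability, T/C: 100% = DMSO vehicle control wells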
# Conditions: for IC50: curve of first compound; for viability, T/C: stronger effect = lower value
# How it was run: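 Multi-cell spheroids of 60% tumour cells, 25% HUVEC and 15% MSC in ultra-low-attachment U-bottom wells, treated with agents combined with ipatasertib or abemaciclib. Half-log ranges top out near clinical Cmax, or 10 microM when Cmax is unknown.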
# [1] = second compound 0.1 µM, first compound 0.0316 µM
# [2] = second compound 0.1 µM, first compound 0.1 µM
# [3] = second compound 0.1 µM, first compound 0.316 µM
# [4] = second compound 0.1 µM, first compound 1 µM
# [5] = second compound 0.1 µM, first compound 3.16 µM
# [6] = second compound 0.1 µM, first compound 10 µM
# [7] = second compound 0.316 µM, first compound 0.0316 µM
# [8] = second compound 0.316 µM, first compound 0.1 µM
# [9] = second compound 0.316 µM, first compound 0.316 µM
# [10] = second compound 0.316 µM, first compound 1 µM
# [11] = second compound 0.316 µM, first compound 3.16 µM
# [12] = second compound 0.316 µM, first compound 10 µM
# [13] = second compound 1 µM, first compound 0.0316 µM
# [14] = second compound 1 µM, first compound 0.1 µM
# [15] = second compound 1 µM, first compound 0.316 µM
# [16] = second compound 1 µM, first compound 1 µM
# [17] = second compound 1 µM, first compound 3.16 µM
# [18] = second compound 1 µM, first compound 10 µM
# [19] = second compound 3.16 µM, first compound 0.0316 µM
# [20] = second compound 3.16 µM, first compound 0.1 µM
# [21] = second compound 3.16 µM, first compound 0.316 µM
# [22] = second compound 3.16 µM, first compound 1 µM
# [23] = second compound 3.16 µM, first compound 3.16 µM
# [24] = second compound 3.16 µM, first compound 10 µM
# [25] = second compound 10 µM, first compound 0.0316 µM
# [26] = second compound 10 µM, first compound 0.1 µM
# [27] = second compound 10 µM, first compound 0.316 µM
# [28] = second compound 10 µM, first compound 1 µM
# [29] = second compound 10 µM, first compound 3.16 µM
# [30] = second compound 10 µM, first compound 10 µM
SMILES,IC50 (second compound 0.1 µM) [nM],IC50 (second compound 0.316 µM) [nM],IC50 (second compound 1 µM) [nM],IC50 (second compound 3.16 µM) [nM],IC50 (second compound 10 µM) [nM],"viability, T/C [1] [%]","viability, T/C [2] [%]","viability, T/C [3] [%]","viability, T/C [4] [%]","viability, T/C [5] [%]","viability, T/C [6] [%]","viability, T/C [7] [%]","viability, T/C [8] [%]","viability, T/C [9] [%]","viability, T/C [13] [%]","viability, T/C [14] [%]","viability, T/C [19] [%]","viability, T/C [20] [%]","viability, T/C [25] [%]","viability, T/C [26] [%]",further results
Cn1ncc(Cl)c1-c1cc(C(=O)NC(CN)Cc2cccc(F)c2)sc1Cl (stereo not given) + CC(C)NCC(C(=O)N1CCN(c2ncnc3c2C(C)CC3O)CC1)c1ccc(Cl)cc1,81.1,< 31.6,< 31.6,< 31.6,< 31.6,59.9,48.8,34.3,19.8,16.9,0.15,35.7,40.3,29.2,24.3,24.5,15.2,15.8,13.6,14.1,"viability, T/C [10]: 17.7%; viability, T/C [11]: 14.1%; viability, T/C [12]: 0.17%; viability, T/C [15]: 19.9%; viability, T/C [16]: 16.4%; viability, T/C [17]: 15.8%; viability, T/C [18]: 0.14%; viability, T/C [21]: 15.5%; viability, T/C [22]: 16%; viability, T/C [23]: 15.3%; viability, T/C [24]: 0.26%; viability, T/C [27]: 13.6%; viability, T/C [28]: 14.6%; viability, T/C [29]: 13.9%; viability, T/C [30]: 0.16%"
Cn1nccc1Nc1nccc(-c2ccn(C(CO)c3ccc(Cl)c(F)c3)c(=O)c2)n1 (stereo not given) + CC(C)NCC(C(=O)N1CCN(c2ncnc3c2C(C)CC3O)CC1)c1ccc(Cl)cc1,> 10000,< 31.6,< 31.6,< 31.6,< 31.6,76.7,77.3,83.1,105,127,104,42.8,43.8,41.9,20.4,24.2,14.2,15.4,12.7,13.3,"viability, T/C [10]: 48%; viability, T/C [11]: 88.1%; viability, T/C [12]: 76.9%; viability, T/C [15]: 27.2%; viability, T/C [16]: 34.5%; viability, T/C [17]: 59.1%; viability, T/C [18]: 34.3%; viability, T/C [21]: 15.1%; viability, T/C [22]: 19.7%; viability, T/C [23]: 23.4%; viability, T/C [24]: 13.8%; viability, T/C [27]: 12.2%; viability, T/C [28]: 14.3%; viability, T/C [29]: 17.4%; viability, T/C [30]: 10.8%"
Cn1ncnc1[C@H]1c2n[nH]c(=O)c3cc(F)cc(c23)N[C@@H]1c1ccc(F)cc1 + CC(C)NCC(C(=O)N1CCN(c2ncnc3c2C(C)CC3O)CC1)c1ccc(Cl)cc1,13.3,< 0.316,< 0.316,< 0.316,< 0.316,51.6,40.1,–,–,–,–,37.9,32.8,–,19.9,18.7,13.2,13.8,11.6,11.3,"viability, T/C (second compound 0.1 µM, first compound 0.000316 µM): 78.5%; viability, T/C (second compound 0.1 µM, first compound 0.001 µM): 71.4%; viability, T/C (second compound 0.1 µM, first compound 0.00316 µM): 52.4%; viability, T/C (second compound 0.1 µM, first compound 0.01 µM): 51.8%; viability, T/C (second compound 0.316 µM, first compound 0.000316 µM): 47.1%; viability, T/C (second compound 0.316 µM, first compound 0.001 µM): 43.8%; viability, T/C (second compound 0.316 µM, first compound 0.00316 µM): 42.9%; viability, T/C (second compound 0.316 µM, first compound 0.01 µM): 40.3%; viability, T/C (second compound 1 µM, first compound 0.000316 µM): 25.3%; viability, T/C (second compound 1 µM, first compound 0.001 µM): 23.3%; viability, T/C (second compound 1 µM, first compound 0.00316 µM): 25.2%; viability, T/C (second compound 1 µM, first compound 0.01 µM): 18.4%; viability, T/C (second compound 3.16 µM, first compound 0.000316 µM): 14.2%; viability, T/C (second compound 3.16 µM, first compound 0.001 µM): 14.1%; viability, T/C (second compound 3.16 µM, first compound 0.00316 µM): 14.7%; viability, T/C (second compound 3.16 µM, first compound 0.01 µM): 13.1%; viability, T/C (second compound 10 µM, first compound 0.000316 µM): 14.8%; viability, T/C (second compound 10 µM, first compound 0.001 µM): 14%; viability, T/C (second compound 10 µM, first compound 0.00316 µM): 13.3%; viability, T/C (second compound 10 µM, first compound 0.01 µM): 11%"
